According to article PMC3282108 (ACS Chemical Biology, 2008):

How the values were obtained:
cancer patients = conditions: cited from earlier work
HER2 = experiment: Western blot of HER2 levels in BT474 cells; assay type: cell-based, human; conditions: compound 8 1 μM, 6, 12, 24 h, 17-AAG 0.178 μM
[1] = cited from earlier work
[2] = tested on: BT474 breast cancer cells; experiment: WST-1 colorimetric cell proliferation assay, BT474; assay type: cell-based, human; conditions: WST-1, concentration-dependent cell killing
Hsp70 = experiment: Western blot of Hsp70 levels in BT474 and SKBR3 cells; assay type: cell-based, human; conditions: 17-AAG 0.178 μM, compound 8 1 or 5 μM

## C=CCNC1=C2C[C@@H](C)C[C@H](OC)[C@H](O)[C@@H](C)/C=C(\C)[C@H](OC(N)=O)[C@@H](OC)/C=C\C=C(/C)C(=O)NC(=CC1=O)C2=O [Compound 17-AAG, 17-Allylamino-17-demethoxygeldanamycin]
Cancer patients
  most common dose-limiting side effects: anorexia, nausea, diarrhea, hepatoxicity, fatigue, thrombocytopenia, and anemia
HER2
  HER2 levels in BT474 cells: time-dependent decrease in HER2 levels
[1]
  solubility in aqueous solution: low solubility in aqueous solution
[2]
  cell killing selectivity, BT474 versus SKBR3 and MCF-12F: significantly more potent in killing BT474 cells than SKBR3 and normal cells
Hsp70
  Hsp70 levels: significant increase in Hsp70 levels
